Patent US20090098529A1 (priority 2006, published 2009)
Read-outs that look alike come from different tables or passages of the source.

Assays:
Settings in all cases: mouse, in vivo
PANC-1 tumors [1] = tested on: PANC-1 tumors; set-up: species or system nude mice
A549 tumors = tested on: A549 tumors; set-up: species or system nude mice
PANC-1 tumors [2] = tested on: PANC-1 tumors; set-up: species or system nude mice; remark: listed apart in the source
GI-101A tumors = tested on: GI-101A tumors

N.N.[Cl][Pt][Cl] [Cisplatin, cis-diamminedichloroplatinum]
Effect on tumor growth (PANC-1 tumors [1]): unable to arrest tumor growth

Nc1ccn([C@@H]2O[C@H](CO)[C@@H](O)C2(F)F)c(=O)n1 [Gemcitabine]
Effect on tumor growth (A549 tumors): actually increased tumor growth
Effect on tumor growth (PANC-1 tumors [2]): moderately decreased tumor growth

Nc1ccn(C[C@@H](CO)OCP(=O)(O)O)c(=O)n1 [cidofovir]
Interference with tumor therapy by the virus (GI-101A tumors): did not significantly interfere with tumor therapy by the virus
Survival time of GLV-1h74 injected mice (GI-101A tumors): significantly extended the survival time
